Source: paper PMC7307883, “Targeting Cavity-Creating p53 Cancer Mutations with Small-Molecule Stabilizers: the Y220X Paradigm” (ACS Chemical Biology, 2020)
Where two headings read alike, the source gives them in different places.

Legend:
p53 Y220S mutant DBD [1] = target: T1, p53 Y220S mutant DBD (Homo sapiens, UniProt P04637, M133L/N239Y/N268D/V203A/Y220S); test: DSF thermal shift assay, Y220S mutant; type: binding; details: 250 μM compound
T1 construct: the mutant p53 DBD (residues 94–312) of interest; 6xHis (N, cleaved yes); lipoyl domain of dihydrolipoamide acetyltransferase (Bacillus stearothermophilus) (N, cleaved yes); made in house; host or cells: E. coli C41
Description: (§1) Melting temperatures of the p53 mutants were determined by differential scanning fluorimetry (DSF) using the dye SYPRO Orange (Invitrogen), which quantitatively binds to hydrophobic protein patches that become exposed upon thermal unfolding. Real-time melt analyses were performed using either an Agilent MX3005P (heating rate of 270 K/h excitation/emission filters = 492/610 nm; Tables 2 and 4) or a Corbett Rotor-Gene 6000 real-time qPCR thermocycler (heating rate of 180 K/h, excitation/emission filters = 460/510 nm; Table 3). Tm measurements were performed with 8 μM p53 protein and 5–10 × SYPRO Orange (Life Technologies) in a 25 mM KPi (pH 7.2), 150 mM NaCl, and 1 mM TCEP assay buffer. For measurements of compound-induced Tm shifts (ΔTm), the assay buffer additionally contained 5% DMSO (v/v), with either 250 μM ligand or no ligand (control). ΔTm values were calculated as ΔTm = Tm (protein + compound) – Tm (protein). Native melting curves were measured in quadruplicate and compound-induced thermal shifts in triplicate or higher. Mean values ± SEM are given.

p53 Y220C mutant DBD [2] = target: T2, p53 Y220C mutant DBD (Homo sapiens, UniProt P04637, M133L/N239Y/N268D/V203A/Y220C); test: DSF thermal shift assay, Y220C mutant; type: binding; details: 250 μM compound
T2 construct: the mutant p53 DBD (residues 94–312) of interest; 6xHis (N, cleaved yes); lipoyl domain of dihydrolipoamide acetyltransferase (Bacillus stearothermophilus) (N, cleaved yes); made in house; host or cells: E. coli C41
Description: as §1

[3] = target: T3, p53 DBD WT (stabilized M133L/V203A/N239Y/N268D) (Homo sapiens, UniProt P04637, M133L/N239Y/N268D/V203A); test: DSF thermal shift assay, WT (stabilized quadruple mutant DBD); type: binding; details: 250 μM compound, Agilent MX3005P, 270 K/h, triplicate, mean ± SEM (Table 4)
T3 construct: the mutant p53 DBD (residues 94–312) of interest; 6xHis (N, cleaved yes); lipoyl domain of dihydrolipoamide acetyltransferase (Bacillus stearothermophilus) (N, cleaved yes); made in house; host or cells: E. coli C41
Description: as §1

p53 Y220N mutant DBD [4] = target: T4, p53 Y220N mutant DBD (Homo sapiens, UniProt P04637, M133L/N239Y/N268D/V203A/Y220N); test: DSF thermal shift assay, Y220N mutant; type: binding; details: 250 μM compound, Agilent MX3005P, 270 K/h, triplicate, mean ± SEM (Table 4)
T4 construct: the mutant p53 DBD (residues 94–312) of interest; 6xHis (N, cleaved yes); lipoyl domain of dihydrolipoamide acetyltransferase (Bacillus stearothermophilus) (N, cleaved yes); made in house; host or cells: E. coli C41
Description: as §1

p53 Y220H mutant DBD = target: T5, p53 Y220H mutant DBD (Homo sapiens, UniProt P04637, M133L/N239Y/N268D/V203A/Y220H); test: DSF thermal shift assay, Y220H mutant; type: binding; details: 250 μM compound, Agilent MX3005P, 270 K/h, triplicate, mean ± SEM (Table 4)
T5 construct: the mutant p53 DBD (residues 94–312) of interest; 6xHis (N, cleaved yes); lipoyl domain of dihydrolipoamide acetyltransferase (Bacillus stearothermophilus) (N, cleaved yes); made in house; host or cells: E. coli C41
Description: as §1

p53 Y220S mutant DBD [5] = target: T1, p53 Y220S mutant DBD; test: Isothermal titration calorimetry, Y220S mutant; type: binding; details: for Kd: ITC, 20 °C, 25 mM KPi pH 7.2, 5% DMSO
Description: (§2) Isothermal titration calorimetry (ITC) experiments for the Y220C and Y220S mutants were performed using a MicroCal (Amherst) iTC200 calorimeter as described.[14] Briefly, the cell unit contained 30–50 μM protein in a 25 mM KPi (pH 7.2), 150 mM NaCl, 1 mM TCEP, and 5% (v/v) DMSO assay buffer. The syringe contained 0.5–2 mM compound in the same buffer, using injection steps of 2 μL at a rate of 0.5 μL/s (initial injection: 0.5 μL) and 120 s spacing. […] Data analysis was performed using the MicroCal Origin software. ITC measurements for the Y220N mutant were carried out with the same buffers as above but using a Nano ITC microcalorimeter (TA Instruments) and injection steps of 8 μL, at a rate of 0.5 μL/s, and 200 s spacing. Data were processed using the NanoAnalyze software (Version 3.5.0) supplied with the instrument. All measurements were performed at 20 °C.

p53 Y220N mutant DBD [6] = target: T4, p53 Y220N mutant DBD; test: Isothermal titration calorimetry, Y220N mutant; type: binding; details: ITC, Nano ITC, 20 °C
Description: as §2

p53 Y220C mutant DBD [7] = target: T2, p53 Y220C mutant DBD; details: ITC, cited from earlier work
[8] = 8 μM protein, 5% DMSO, Rotor-Gene 6000, 180 K/h, quadruplicate, mean ± SEM (Table 3), read-out: Y220S mutant ΔTm
[9] = 8 μM protein, 5% DMSO, Rotor-Gene 6000, 180 K/h, quadruplicate, mean ± SEM (Table 3), read-out: Y220C mutant ΔTm
[10] = Agilent MX3005P, 270 K/h, triplicate, mean ± SEM (Table 4), read-out: ΔTm Y220S
[11] = Agilent MX3005P, 270 K/h, triplicate, mean ± SEM (Table 4), read-out: ΔTm Y220C

Row | SMILES | ΔTm at 250 µM (p53 Y220S mutant DBD [1]; [8]) [°C] | ΔTm at 250 µM (p53 Y220C mutant DBD [2]; [9]) [°C] | Kd (p53 Y220C mutant DBD [7]; ref 17 (Bauer et al.)) [µM] | also measured
1 | CCn1c2ccc(CN(C)C)cc2c2ccc(Br)cc21 [PK9285] |  |  |  | ΔTm at 250 µM (p53 Y220S mutant DBD [1]; [10]): 2.1 ± 0.1 °C; ΔTm at 250 µM (p53 Y220C mutant DBD [2]; [11]): 2 °C; ΔTm at 250 µM [3]: -0.2 ± 0.1 °C; ΔTm at 250 µM (p53 Y220N mutant DBD [4]): 1.4 ± 0.1 °C; ΔTm at 250 µM (p53 Y220H mutant DBD): 0.2 °C
2 | CCOc1ccc2c3cc(CNC)ccc3n(CC)c2c1 [PK9295] | 0.9 | 1.2 ± 0.1 | 62 ± 7 | 
3 | CNCc1ccc2c(c1)c1ccc(Br)cc1n2CC(F)(F)F [PK9301, 1-(7-Bromo-9-(2,2,2-trifluoroethyl)-9H-carbazol-3-yl)-N-methylmethanamine] | > 5 | 3.5 ± 0.1 |  | Kd (p53 Y220S mutant DBD [5]): 4 ± 1 µM
4 | CCn1c2ccc(CNC)cc2c2ccc(-c3cccs3)cc21 [PK9318] | 2.1 | 4.4 ± 0.1 | 2.6 ± 0.4 | 
5 | CCn1c2ccc(CNC)cc2c2ccc(-c3ccco3)cc21 [PK9320] | 1.8 ± 0.1 | 3.4 | 4.1 ± 0.2 | 
6 | CCn1c2ccc(CNC)cc2c2ccc(-c3ccoc3)cc21 [PK9321] |  |  |  | ΔTm at 250 µM (p53 Y220S mutant DBD [1]; [10]): 2.1 ± 0.1 °C; ΔTm at 250 µM (p53 Y220C mutant DBD [2]; [11]): 3.1 ± 0.1 °C; ΔTm at 250 µM [3]: 0.2 ± 0.1 °C; ΔTm at 250 µM (p53 Y220N mutant DBD [4]): 1.4 ± 0.1 °C; ΔTm at 250 µM (p53 Y220H mutant DBD): 0.7 ± 0.1 °C
7 | CCn1c2ccc(CNC)cc2c2ccc(-c3nccs3)cc21 [PK9322] | 3 | 3.4 | 8.3 ± 2.6 | 
8 | CCn1c2ccc(CNC)cc2c2ccc(-c3cscn3)cc21 [PK9323] | 3.7 ± 0.3 | 3.1 ± 0.1 | 5.3 ± 1.4 | ΔTm at 250 µM (p53 Y220S mutant DBD [1]; [10]): 3.7 ± 0.3 °C; ΔTm at 250 µM (p53 Y220C mutant DBD [2]; [11]): 3.1 ± 0.1 °C; ΔTm at 250 µM [3]: -0.4 ± 0.2 °C; ΔTm at 250 µM (p53 Y220N mutant DBD [4]): 0.7 ± 0.1 °C; ΔTm at 250 µM (p53 Y220H mutant DBD): -0.3 ± 0.1 °C; Kd (p53 Y220S mutant DBD [5]): 5.9 ± 1.3 µM
9 | CCn1c2ccc(CNC)cc2c2ccc(-c3ccc(C)s3)cc21 [PK9327] | 1.2 | 3.7 ± 0.2 |  | 
10 | CCn1c2ccc(CNC)cc2c2ccc(-c3cc(C)cs3)cc21 [PK9328] | 1.5 ± 0.1 | 3.7 |  | 

The next lines start with results.

Row | ΔTm at 250 µM (p53 Y220S mutant DBD [1]; [8]) [°C] | ΔTm at 250 µM (p53 Y220C mutant DBD [2]; [9]) [°C] | SMILES | Kd (p53 Y220C mutant DBD [7]; ref 17 (Bauer et al.)) [µM] | also measured
11 | 0.7 ± 0.1 | 1 ± 0.1 | CCn1c2ccccc2c2cc(CNC)ccc21 [PK083] |  | 
12 | 3.2 | 1.7 ± 0.1 | CNCc1ccc2c(c1)c1ccccc1n2CC(F)(F)F [PK9255] |  | ΔTm at 250 µM (p53 Y220S mutant DBD [1]; [10]): 3.2 °C; ΔTm at 250 µM (p53 Y220C mutant DBD [2]; [11]): 1.7 ± 0.1 °C; ΔTm at 250 µM [3]: 0 °C; ΔTm at 250 µM (p53 Y220N mutant DBD [4]): 1.4 ± 0.1 °C; ΔTm Y220H (p53 Y220H mutant DBD): no significant stabilizing effect; ΔTm at 250 µM (p53 Y220H mutant DBD): 0.2 ± 0.1 °C; Kd (p53 Y220S mutant DBD [5]): 16 ± 2 µM; Tighter binding to Y220S than to Y220C (ratio of Kd) (p53 Y220S mutant DBD [5]; Kd 16 μM (Y220S) vs 28 μM (Y220C)): about 2 times; Kd (p53 Y220N mutant DBD [6]): 40 µM; Kd (p53 Y220C mutant DBD [7]; ref 14 (Bauer et al.)): 28 µM
13 | 1.8 ± 0.1 | 2.4 ± 0.1 | CCn1c2ccc(CNC)cc2c2ccc(Br)cc21 [PK9284] | 14 ± 2 | 
14 | 1.1 ± 0.1 | 2.1 ± 0.1 | CCn1c2ccc(CNC)cc2c2ccc(-c3sccc3C)cc21 [PK9331] |  | 
15 | 1.2 ± 0.1 | 2.3 ± 0.1 | CCn1c2ccc(CNC)cc2c2ccc(-c3cnoc3)cc21 [PK9424] |  | 
